Data taken from PMC7181277, “Synthesis and Biological Evaluation of New Antitubulin Agents Containing 2-(3′,4′,5′-trimethoxyanilino)-3,6-disubstituted-4,5,6,7-tetrahydrothieno[2,3-c]pyridine Scaffold” (Molecules, 2020).
Like-named read-outs stand apart in the source and are kept apart here.

Tests used:
[1] = test system: human cervix carcinoma (HeLa) cells; experiment: In vitro antiproliferative assay, HeLa cells; format: cell-based; settings: for fold more active than 2b against HeLa cells: relative to 2b (IC50: 41 μM); for IC50: human cervix carcinoma HeLa, 72 h, cell count, mean ± SE
Method: (§1) Murine leukemia L1210, human T-lymphocyte leukemia CEM, human cervix carcinoma (HeLa), and human chronic myelogenous leukemia K562 cells (3–5 × 10^4 cells) and a serial (5-fold) dilution of the test compounds were added to a 96-well microtiter plate. The cells were incubated for 72 h at 37 °C in a humidified 5% CO2 atmosphere. At the end of the incubation period, the cells were counted in a Coulter Counter (Coulter Electronics Ltd., Harpenden Herts, United Kingdom). […] The IC50 values represent the average (± standard deviation) of three independent experiments. Human peripheral blood mononuclear cells (PBMC) were obtained from healthy donors by centrifugation with Ficoll-Paque Plus (GE Healthcare Bio-Sciences AB, Uppsala).

K562 cells [2] = experiment: Apoptosis assay (Muse Annexin V & Dead Cell Kit); format: cell-based, human; settings: K562, 72 h, representative experiment; for cells undergoing apoptosis (total) at IC50: at IC50 (3a 0.75 μM, 3b 0.70 μM); for cells undergoing apoptosis (total) at IC75: at IC75 (3a 1.00 μM, 3b 0.90 μM)
Source text: This phospholipid flips from the inner to the outer leaflet of the plasma membrane during apoptosis. Positive staining with annexin-V correlates with the loss of plasma membrane polarity, but this staining precedes the complete loss of membrane integrity that accompanies the later stages of cell death, resulting from either apoptosis or necrosis. In contrast, PI can only enter cells after complete loss of membrane integrity. Thus, dual staining for annexin-V and with PI permits discrimination between unaffected cells (annexin-V^−/PI^−), early apoptotic cells (annexin-V^+/PI^−), late apoptotic cells (annexin-V^+/PI^+), and necrotic cells (annexin-V^−/PI^+).
Apoptosis assays on K562 cells were performed with the Muse Cell Analyzer instrument, and assays were performed according to the instructions supplied by the manufacturer. The Muse Annexin V & Dead Cell Kit employs annexin V to detect phosphatidyl serine (PS) on the external membrane of apoptotic cells. A fluorescent DNA intercalator (7-ADD: 7-aminoactinomycin D) is also used as an indicator of cell membrane integrity. From live, healthy cells, as well as early apoptotic cells, 7-ADD is excluded while it is able to bind DNA in cells in late apoptosis and in dead cells. Cells were washed with sterile PBS 1X, suspended, and diluted (1:2) with the Muse Annexin V & Dead Cell reagent. Samples were gently mixed and incubated at room temperature, protected from the light for 15 min. Samples were analyzed using a Muse Cell Analyzer, and data from prepared samples were acquired and recorded utilizing the Annexin V and Dead Cell Software Module (Millipore).

Bovine brain tubulin = experiment: Inhibition of tubulin polymerization (turbidimetric assembly); format: biochemical; settings: tubulin at 10 μM, 20 min incubation; read-out: Tubulin assembly IC50 ± SD
Method: (§2) Bovine brain tubulin was purified as described previously. To evaluate the effect of the compounds on tubulin assembly in vitro [59], varying concentrations were preincubated with 10 μM tubulin in 0.8 M glutamate buffer at 30 °C and then cooled to 0 °C. After addition of GTP, the mixtures were transferred to 0 °C cuvettes in a recording spectrophotometer and warmed to 30 °C, and the assembly of tubulin was observed turbidimetrically. […] The ability of the test compounds to inhibit colchicine binding to tubulin was measured as described earlier, except that the reaction mixtures contained 1 μM tubulin, 5 μM of [^3H]colchicine, and test compounds 3a or 3b.

K562 cells [3] = experiment: Cell cycle distribution by flow cytometry (Muse Cell Analyzer); format: cell-based, human; settings: K562, 72 h, three experiments, average ± S.D.; for percentage of G2/M-phase cells at IC50: at IC50 (3a 0.75 μM, 3b 0.70 μM); for percentage of G2/M-phase cells at IC75: at IC75 (3a 1.0 μM, 3b 0.90 μM)
Method: The cells were cultured for 72 h in the presence of two different concentrations (IC50 and IC75) for each tested derivative and the obtained results were compared with non-treated K562 cells as control.
Human leukemia K562 cells were treated with compounds 3a or 3b, and analysis of the distribution of the cells through the cell cycle was performed with the Muse Cell Analyzer instrument (Millipore Corporation, Billerica, MA, USA). Assay and cell counting were performed according to the instructions supplied by the manufacturer. Samples were collected after the treatment and washed in PBS. For analysis, 5 × 10^5 cells were resuspended in 200 μL of Muse Cell Cycle Reagent, incubated for 30 min at room temperature, and the cell suspension was transferred to a 1.5 mL microcentrifuge tube prior to analysis. Cells were analyzed by fluorescence-activated cell sorting analysis using a Muse Cell Analyzer.

[4] = test system: L1210, CEM, and HeLa cells; experiment: Antiproliferative activity, panel of three cancer cell lines; format: cell-based; settings: for IC50: span over L1210, CEM and HeLa, read-out: IC50 values against the panel of three cancer cell lines
Source text: (§3) In Table 1 we report the in vitro antiproliferative activity of 2-(3′,4′,5′-trimethoxyanilino)-4,5,6,7-tetrahydrothieno[2,3-c]pyridine derivatives 3a–3j and the related 4,5,6,7-tetrahydrobenzo[b]thiophenes 3k–3p against a panel of three cell lines, which were derived from different cancer types, including murine leukemia (L1210), human T-lymphoblastoid leukemia (CEM), and human cervix carcinoma (HeLa) cells.
(§4) Murine leukemia L1210, human T-lymphocyte leukemia CEM, human cervix carcinoma (HeLa), and human chronic myelogenous leukemia K562 cells (3–5 × 10^4 cells) and a serial (5-fold) dilution of the test compounds were added to a 96-well microtiter plate. The cells were incubated for 72 h at 37 °C in a humidified 5% CO2 atmosphere. At the end of the incubation period, the cells were counted in a Coulter Counter (Coulter Electronics Ltd., Harpenden Herts, United Kingdom). The IC50 (50% inhibitory concentration) was defined as the concentration of compound that inhibited cell proliferation by 50%. The IC50 values represent the average (± standard deviation) of three independent experiments. Human peripheral blood mononuclear cells (PBMC) were obtained from healthy donors by centrifugation with Ficoll-Paque Plus (GE Healthcare Bio-Sciences AB, Uppsala).

[5] = test system: human peripheral blood mononuclear cells (PBMC); experiment: Antiproliferative activity in normal human cells (PBMC); format: cell-based; settings: 72 h
Method: In order to investigate the selective antiproliferative activities of derivatives 3a and 3b in normal human cells, both these molecules were tested in vitro against human peripheral blood mononuclear cells (PBMC) isolated from healthy donors.
as §4

[6] = test system: human chronic myelogenous leukemia K562 cells; experiment: In vitro antiproliferative assay, K562 cells; format: cell-based; settings: 72 h; for IC50: Homo sapiens
Method: These values are 1.5-fold lower than those obtained with the 6-methoxycarbonyl derivative 3a against L1210 and HeLa cells, while both compounds were equipotent against CEM cells.
as §4

[7] = test system: tubulin (colchicine site); experiment: Inhibition of [3H]colchicine binding to tubulin; parameters: species or system Bovine; settings: tubulin 1 μM, colchicine 5 μM, compound 5 μM
Method: as §2

[8] = test system: murine leukemia (L1210) cells; experiment: In vitro antiproliferative assay, L1210 cells; format: cell-based; settings: Mus musculus; murine leukemia L1210, 72 h, cell count; mean ± SE
Source text: as §3, §4

[9] = test system: human T-lymphoblastoid leukemia (CEM) cells; experiment: In vitro antiproliferative assay, CEM cells; format: cell-based; settings: CCRF-CEM; human T-lymphocyte CEM, 72 h, cell count; mean ± SE
Method: as §1

[10] = phytohemagglutin (PHA)-stimulated PBMC, read-out: IC50 PBMC, PHA-stimulated
[11] = resting PBMC from healthy donors, read-out: IC50 PBMC, resting

For `COC(=O)N1CCc2c(sc(Nc3cc(OC)c(OC)c(OC)c3)c2C#N)C1` [Compound 3a, Methyl 3-cyano-2-((3,4,5-trimethoxyphenyl)amino)-4,5-dihydrothieno[2,3-c]pyridine-6(7H)-carboxylate], the “fold more active than 2b against HeLa cells” value [1] was 40 fold, the IC50 [1] was 1900 ± 1200 nM and the “cells undergoing apoptosis (total) at IC50” value (K562 cells [2]) was 29.64%. The “cells undergoing apoptosis (total) at IC75” value (K562 cells [2]) was 46.68%, the IC50 (Bovine brain tubulin) was 3800 ± 50 nM and the “percentage of G2/M-phase cells at IC50” value (K562 cells [3]) was 33.6% ± 1.1%. The “percentage of G2/M-phase cells at IC75” value (K562 cells [3]) was 34.9% ± 1.3%, the IC50 [4] was 1900 to 4700 nM and the IC50 [5, 10] was over 20000 nM. The IC50 [5, 11] was over 20000 nM, the “IC75 K562” value [6] was 1000 nM and the IC50 [6] was 750 nM. The “Colchicine binding % ± SD (inhibition of [3H]colchicine binding)” value [7] was 29 ± 1%, the IC50 [8] was 4700 ± 400 nM and the IC50 [9] was 2900 ± 2100 nM.

With `CCOC(=O)N1CCc2c(sc(Nc3cc(OC)c(OC)c(OC)c3)c2C#N)C1` [Compound 3b, Ethyl 3-cyano-2-((3,4,5-trimethoxyphenyl)amino)-4,5-dihydrothieno[2,3-c]pyridine-6(7H)-carboxylate] the “fold more active than 2b against HeLa cells” value [1] was 20 fold, the IC50 [1] was 1100 nM and the “cells undergoing apoptosis (total) at IC50” value (K562 cells [2]) was 32.87%. The “cells undergoing apoptosis (total) at IC75” value (K562 cells [2]) was 56.01%, the IC50 (Bovine brain tubulin) was 3400 ± 50 nM and the “percentage of G2/M-phase cells at IC50” value (K562 cells [3]) was 30.3% ± 1.3%. For the same molecule, the “percentage of G2/M-phase cells at IC75” value (K562 cells [3]) was 33.5% ± 0.6%, the “fold lower IC50 than 3a” value ([4]; against L1210 and HeLa cells) was 1.5 fold and the IC50 [4] was 1100 to 2800 nM. The IC50 [5, 10] was over 20000 nM, the IC50 [5, 11] was over 20000 nM and the “IC75 K562” value [6] was 900 nM. The IC50 [6] was 700 nM, the “Colchicine binding % ± SD (inhibition of [3H]colchicine binding)” value [7] was 31 ± 1% and the IC50 [8] was 2800 ± 2300 nM. For the same molecule, the IC50 [9] was 2300 ± 1700 nM.
